Key:
[1] = biological target: recombinant RORγ Ligand Binding Domain (LBD) (Homo sapiens (Human), UniProt P51449); assay: Radio-Ligand RORγ Binding Assay (Assay 1); settings: SPA competition with 25-hydroxy [26,27-3H]-cholesterol, cell-free; read-out: RORγ Binding Ki Range
Description: Radio-Ligand RORγ Binding Assay (Assay 1)
Compounds of the present invention were tested for ability to bind to RORγ in a cell-free competition assay with commercially available radio-ligand (RL), 25-hydroxy [26,27-^3H]-cholesterol (PerkinElmer, Cat. #NET674250UC), for a ligand binding site on a recombinant RORγ Ligand Binding Domain (LBD) protein expressed as a 6×His-Glutathione-S-Transferase (GST) fusion. […] The plate was shaken at 700 rpm for 20 min and incubated for 10 min at rt, after which 40 μL of poly-Lys YSi SPA beads (PerkinElmer, Cat. #RPNQ0010) were added to achieve 50 μg of the beads per well. The plate was incubated on an orbital shaker for 20 min and then for 10 min without agitation at rt. SPA signal for tritium beta radiation was registered on PerkinElmer Microbeta plate reader. […] The percent inhibition vs. concentration data were fit into a four-parameter model, and IC50 values were calculated from the fit as the concentrations corresponding to the inflection points on the dose-response curves.

[2] = biological target: full-length RORγt (Homo sapiens (Human), UniProt P51449); assay: RORγt 5×RORE Assay in Jurkat Cells (Assay 2); type: cell-based; settings: secreted Nanoluc luciferase 5×RORE reporter, 16-18 hrs, read-out: RORγt5X IC50 Range
Description: [formula] RORγt 5×RORE Assay in Jurkat Cells (Assay 2)
Compounds of the present invention were tested for RORγ inverse agonist activity in a cell-based, transcriptional activity assay. […] (Promega, Cat. #N1021) using KpnI and HindIII restriction sites. […] Luciferase activity in the conditioned supernatants was determined with NanoGlo® assay reagents (Promega, Cat. #N1130).

Sequence of full-length RORγt (P51449 other isoform, or with tags, fused parts or gaps): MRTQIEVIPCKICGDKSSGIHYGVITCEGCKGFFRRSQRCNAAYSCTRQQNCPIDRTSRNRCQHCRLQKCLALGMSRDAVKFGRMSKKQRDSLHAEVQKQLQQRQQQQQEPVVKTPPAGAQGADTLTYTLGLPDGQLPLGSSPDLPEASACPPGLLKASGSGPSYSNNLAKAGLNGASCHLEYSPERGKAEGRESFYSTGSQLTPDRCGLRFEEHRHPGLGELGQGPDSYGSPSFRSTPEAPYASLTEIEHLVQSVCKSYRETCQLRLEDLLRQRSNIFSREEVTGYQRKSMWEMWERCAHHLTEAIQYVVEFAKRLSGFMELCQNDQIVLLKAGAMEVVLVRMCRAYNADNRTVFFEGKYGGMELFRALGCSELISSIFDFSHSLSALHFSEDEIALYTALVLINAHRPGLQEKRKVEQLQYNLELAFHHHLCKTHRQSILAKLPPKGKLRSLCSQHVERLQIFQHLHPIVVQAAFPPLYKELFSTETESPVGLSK
Sequence of recombinant RORγ Ligand Binding Domain (LBD) (P51449 269-508): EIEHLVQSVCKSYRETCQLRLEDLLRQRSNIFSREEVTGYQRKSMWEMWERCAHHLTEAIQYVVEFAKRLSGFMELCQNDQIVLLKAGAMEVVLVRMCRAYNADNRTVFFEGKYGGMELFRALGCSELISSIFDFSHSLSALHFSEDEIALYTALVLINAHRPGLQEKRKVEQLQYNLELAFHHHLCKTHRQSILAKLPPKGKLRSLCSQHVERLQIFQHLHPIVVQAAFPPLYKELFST

| Ki [1] [µM] | IC50 [2] [µM] | SMILES |
| --- | --- | --- |
| < 0.1 | < 0.1 | CCS(=O)(=O)c1ccc(CNC(=O)c2cnc3c(c2)CN(Cc2ccc(Cl)cc2)[C@H]3C(C)C)cc1 [Compound 3] |
| < 0.1 | < 0.1 | CCS(=O)(=O)c1ccc(CNC(=O)c2cnc3c(c2)CN(Cc2ccc(C#N)cc2)[C@H]3C(C)C)cc1 [Compound 4] |
| < 0.1 | < 0.1 | CCS(=O)(=O)c1ccc(CNC(=O)c2cnc3c(c2)CN(Cc2ccc(OC(F)F)cc2)[C@H]3C(C)C)cc1 [Compound 5] |
| < 0.1 | 0.1 to 1 | CCS(=O)(=O)c1ccc(CNC(=O)c2cnc3c(c2)CN(Cc2ccc(F)cc2)[C@H]3C(C)C)cc1 [Compound 7] |
| < 0.1 | > 1 | CCS(=O)(=O)c1ccc(CNC(=O)c2cnc3c(c2)CN(c2ncc(C(F)(F)F)cn2)[C@H]3C(C)C)cc1 [Compound 8] |
| < 0.1 | > 1 | CCOC(=O)c1cnc(N2Cc3cc(C(=O)NCc4ccc(S(=O)(=O)CC)cc4)cnc3[C@@H]2C(C)C)nc1C(F)(F)F [Compound 10] |
| 0.1 to 1 | > 1 | CCS(=O)(=O)c1ccc(CNC(=O)c2cnc3c(c2)C(=O)N(Cc2ccc(Cl)cc2)C3(O)C(C)C)cc1 (stereo not shown) [Compound 11] |
| < 0.1 | < 0.1 | CC(C)[C@H]1c2ncc(C(=O)NCc3ccc(S(C)(=O)=O)cc3)cc2CN1Cc1ccc(Cl)cc1 [Compound 17] |
| 0.1 to 1 | 0.1 to 1 | CC(C)[C@H]1c2ncc(C(=O)NCc3ccc(S(C)(=O)=O)cc3)cc2CN1Cc1ccc(C#N)cc1 [Compound 21] |
| < 0.1 | < 0.1 | CC(C)[C@H]1c2ncc(C(=O)NCc3ccc(S(C)(=O)=O)cc3)cc2CN1Cc1ccc(C(F)(F)F)cc1 [Compound 22] |
| < 0.1 | > 1 | CC(C)[C@H]1c2ncc(C(=O)NCc3ccc(S(C)(=O)=O)cc3)cc2CN1Cc1ccc(F)cc1 [Compound 24] |
| < 0.1 | > 1 | CCS(=O)(=O)c1ccc(CNC(=O)c2cnc3c(c2)CN(C(=O)OCc2ccc(Cl)cc2)[C@H]3C(C)C)cc1 [Compound 25] |
| < 0.1 | < 0.1 | CCS(=O)(=O)c1ccc(CNC(=O)c2cnc3c(c2)[C@@H](C)N(Cc2ccc(Cl)cc2)[C@H]3C(C)C)cc1 [Compound 28] |
| < 0.1 | < 0.1 | CCS(=O)(=O)c1ccc(CNC(=O)c2cnc3c(c2)[C@H](C)N(Cc2ccc(Cl)cc2)[C@H]3C(C)C)cc1 [Compound 29] |
| < 0.1 | < 0.1 | CCS(=O)(=O)c1ccc(CNC(=O)c2cnc3c(c2)[C@@H](C)N(Cc2ccc(C(F)(F)F)cc2)[C@H]3C(C)C)cc1 [Compound 30] |
| < 0.1 | < 0.1 | CCS(=O)(=O)c1ccc(CNC(=O)c2cnc3c(c2)[C@H](C)N(Cc2ccc(C(F)(F)F)cc2)[C@H]3C(C)C)cc1 [Compound 31] |
| < 0.1 | < 0.1 | CCS(=O)(=O)c1ccc(CNC(=O)c2cnc3c(c2)CN(Cc2ccc(C(F)(F)F)cc2)[C@H]3C(C)C)nc1 [Compound 33] |
| < 0.1 | < 0.1 | CCS(=O)(=O)c1ccc(CNC(=O)c2cnc3c(c2)CN(Cc2ccc(Cl)cc2)[C@H]3C(C)C)nc1 [Compound 34] |
| < 0.1 | 0.1 to 1 | CCS(=O)(=O)c1ccc(CNC(=O)c2cnc3c(c2)CN(Cc2ccc(C#N)cc2)[C@H]3C(C)C)nc1 [Compound 35] |
| < 0.1 | > 1 | CCS(=O)(=O)c1ccc(CNC(=O)c2cnc3c(c2)CN(CC2CCC(F)(F)CC2)[C@H]3C(C)C)cc1 [Compound 42] |
| < 0.1 | > 1 | CCS(=O)(=O)c1ccc(CNC(=O)c2cnc3c(c2)CN(CC2CCC(F)(F)CC2)[C@H]3C(C)C)nc1 [Compound 43] |
| < 0.1 | < 0.1 | CCS(=O)(=O)c1ccc(CNC(=O)c2cnc3c(c2)CN(C[C@H]2CC[C@H](OC)CC2)[C@H]3C(C)C)cc1 [Compound 45] |
| < 0.1 | > 1 | CCS(=O)(=O)c1ccc(CNC(=O)c2cnc3c(c2)CN(C(=O)OC(C)(C)C)[C@H]3C(C)C)nc1 [Compound 46, Tert-butyl (S)-3-(((5-(ethylsulfonyl)pyridin-2-yl)methyl)carbamoyl)-7-isopropyl-5,7-dihydro-6H-pyrrolo[3,4-b]pyridine-6-carboxylate] |
| < 0.1 | < 0.1 | CCS(=O)(=O)c1ccc(CNC(=O)c2cnc3c(c2)CN(CC2CCN(CC(F)(F)F)CC2)[C@H]3C(C)C)cc1 [Compound 49] |

| Ki [1] [µM] | IC50 [2] [µM] | SMILES |
| --- | --- | --- |
| < 0.1 | < 0.1 | CCS(=O)(=O)c1ccc(CNC(=O)c2cnc3c(c2)CN(Cc2ccc4c(c2)OC(F)(F)O4)[C@H]3C(C)C)nc1 [Compound 54] |
| < 0.1 | < 0.1 | CCS(=O)(=O)c1ccc(CC(=O)Nc2cnc3c(c2)CN(C[C@H]2CC[C@H](C(F)(F)F)CC2)[C@H]3C(C)C)cc1 [Compound 55] |
|  | 0.1 to 1 | CCS(=O)(=O)c1ccc(CC(=O)Nc2cnc3c(c2)CN(Cc2ccc(Cl)cc2)[C@H]3C(C)C)cc1 [Compound 56] |
| < 0.1 | < 0.1 | CCS(=O)(=O)c1ccc(CC(=O)Nc2cnc3c(c2)CN(Cc2ccc(C#N)cc2)[C@H]3C(C)C)cc1 [Compound 57] |
| < 0.1 | < 0.1 | CCS(=O)(=O)c1ccc(CC(=O)Nc2cnc3c(c2)CN(Cc2ccc(C(F)(F)F)cc2)[C@H]3C(C)C)cc1 [Compound 58] |
| > 1 |  | COC(=O)C1(CNC(=O)c2cnc3c(c2)CN(Cc2ccc(C(F)(F)F)cc2)[C@H]3C(C)C)CCOCC1 [Compound 134] |
| > 1 |  | COC(=O)C(Cc1cc(=O)[nH]c2ccccc12)NC(=O)c1cnc2c(c1)CN(Cc1ccc(C(F)(F)F)cc1)[C@H]2C(C)C (stereo partly shown) [Compound 135] |
| > 1 |  | CC(C)[C@H]1c2ncc(C(=O)NC(Cc3cc(=O)[nH]c4ccccc34)C(=O)O)cc2CN1Cc1ccc(C(F)(F)F)cc1 (stereo partly shown) [Compound 136] |
| > 1 |  | COC(=O)CC1(CNC(=O)c2cnc3c(c2)CN(Cc2ccc(C(F)(F)F)cc2)[C@H]3C(C)C)CCCCC1 [Compound 137] |
| > 1 |  | CC(C)[C@H]1c2ncc(C(=O)NC(Cc3ccc(F)cc3)C(=O)O)cc2CN1Cc1ccc(C(F)(F)F)cc1 (stereo partly shown) [Compound 138] |
| > 1 |  | CC(C)[C@H]1c2ncc(C(=O)NC(CC(=O)O)c3ccc(Br)cc3)cc2CN1Cc1ccc(C(F)(F)F)cc1 (stereo partly shown) [Compound 140] |
| > 1 |  | CC(C)[C@H]1c2ncc(C(=O)NCC3(CC(=O)O)CCCCC3)cc2CN1Cc1ccc(C(F)(F)F)cc1 [Compound 145] |
| > 1 |  | CC(C)[C@H]1c2ncc(C(=O)NCC3(C(=O)O)CCOCC3)cc2CN1Cc1ccc(C(F)(F)F)cc1 [Compound 146] |
| 0.1 to 1 |  | CC(C)[C@H]1c2ncc(C(=O)NCc3ccc(C(=O)O)cc3)cc2CN1Cc1ccc(C(F)(F)F)cc1 [Compound 147, (S)-4-((7-isopropyl-6-(4-(trifluoromethyl)benzyl)-6,7-dihydro-5H-pyrrolo[3,4-b]pyridine-3-carboxamido)methyl)benzoic acid] |
| > 1 |  | CC(C)[C@H]1c2ncc(C(=O)NC[C@H]3CC[C@H](C(=O)O)CC3)cc2CN1Cc1ccc(C(F)(F)F)cc1 [Compound 148] |
| > 1 |  | COC(=O)c1ccc(CNC(=O)c2cnc3c(c2)CN(Cc2ccc(C(F)(F)F)cc2)[C@H]3C(C)C)nc1 [Compound 150] |
| 0.1 to 1 |  | CC(C)[C@H]1c2ncc(C(=O)NCc3ccc(C(=O)O)cn3)cc2CN1Cc1ccc(C(F)(F)F)cc1 [Compound 151] |
| > 1 |  | CC(C)[C@H]1c2ncc(C(=O)NCCC3CN(S(C)(=O)=O)C3)cc2CN1Cc1ccc(C(F)(F)F)cc1 [Compound 152] |
| > 1 |  | CC(C)[C@H]1c2ncc(C(=O)NCC3CN(S(C)(=O)=O)C3)cc2CN1Cc1ccc(C(F)(F)F)cc1 [Compound 153] |
| > 1 |  | CC(C)[C@H]1c2ncc(C(=O)NCC3CCN(S(C)(=O)=O)C3)cc2CN1Cc1ccc(C(F)(F)F)cc1 (stereo partly shown) [Compound 154] |
| > 1 |  | CC(C)[C@H]1c2ncc(C(=O)NC[C@@H]3CCN(C(=O)OC(C)(C)C)C[C@H]3O)cc2CN1Cc1ccc(C(F)(F)F)cc1 [Compound 156] |
| > 1 |  | CC(=O)O[C@@H]1CN(C(C)=O)CC[C@H]1CNC(=O)c1cnc2c(c1)CN(Cc1ccc(C(F)(F)F)cc1)[C@H]2C(C)C [Compound 157] |
| 0.1 to 1 |  | CC(C)[C@H]1c2ncc(C(=O)N[C@H](CO)c3ccc(C#N)cc3)cc2CN1Cc1ccc(C(F)(F)F)cc1 [Compound 158] |
| < 0.1 |  | CCS(=O)(=O)c1ccc(CNC(=O)c2cnc3c(c2)CN(Cc2ccc(C(F)(F)F)cc2)[C@H]3C(C)C)nn1 [Compound 159] |

| SMILES | Ki [1] [µM] | IC50 [2] [µM] |
| --- | --- | --- |
| CCS(=O)(=O)c1ccc(CNC(=O)c2cnc3c(c2)CN(C(=O)OC(C)(C)C)[C@H]3C(C)C)cc1 [Compound 15, tert-butyl (S)-3-((4-(ethylsulfonyl)benzyl)carbamoyl)-7-isopropyl-5,7-dihydro-6H-pyrrolo[3,4-b]pyridine-6-carboxylate] |  | > 1 |
| CC(C)[C@H]1c2ncc(C(=O)N[C@H]3c4ccccc4C[C@H]3O)cc2CN1Cc1ccc(C(F)(F)F)cc1 [Compound 131] | 0.1 to 1 |  |
| CC(C)[C@H]1c2ncc(C(=O)N[C@H]3c4ccccc4C[C@H]3O)cc2CN1Cc1ccc(C(F)(F)F)cc1 [Compound 132] | 0.1 to 1 |  |

— patent publication US9624217B2, “Dihydropyrrolopyridine inhibitors of ROR-gamma” (Vitae Pharmaceuticals, Inc., priority 2014, dated 2017)
